Experimental data from PubChem BioAssay (NCI).
Where “and” joins values, the source holds several entries; their conditions need not be identical. Equal entries are not always repeated.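 Growth conditions: 96-well plates. Treatment: test compound, 48 hours, 5 concentrations. Analysis: linear interpolation between bracketing concentrations; unreached endpoints set to highest concentration. GI50: concentration for 50% inhibition of growth. TGI denotes the concentration required for complete inhibition of growth.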 *1 amine or outer side, *2 acyl side, *3 side chain or, on linkers, in order; H or OH if unused. Where a SMILES comes first, the peptide text is derived from it. Bridges are numbered along the chain shown (N, C = ends). Roman numbers before positions name the chains, in order. [ ]: non-standard residue; d: D form. Actinocin(9to1) = Cc1c2oc3c(C)ccc(C(=O)[*:1])c3nc-2c(C(=O)[*:2])c(N)c1=O; NMeV = CN[CH](C(=O)O)C(C)C; Sar = CNCC(=O)O

What was measured:
Test in all cases: NCI-60 cell line screen, 48 h
[1] = tested on: LOX IMVI melanoma
[2] = tested on: PC-3 prostate
[3] = tested on: MDA-N
[4] = tested on: SW-620 colon
[5] = tested on: HCC-2998 colon
[6] = tested on: BT-549 breast
[7] = tested on: T-47D breast
[8] = tested on: NCI-H226 lung
[9] = tested on: CAKI-1 renal
[10] = tested on: HS 578T breast
[11] = tested on: MDA-MB-435
[12] = tested on: SN12C renal
[13] = tested on: LXFL 529 NSCLC
[14] = tested on: DMS 273 small cell lung
[15] = tested on: SNB-78 CNS
[16] = tested on: DMS 114 small cell lung
[17] = tested on: OVCAR-8 ovarian

Row | SMILES | GI50 [1] [µM] | TGI [1] [µM] | GI50 [2] [µM] | GI50 [3] [µM] | TGI [3] [µM] | TGI [4] [µM] | TGI [5] [µM] | TGI [6] [µM] | TGI [7] [µM] | TGI [8] | TGI [9] [µM] | TGI [2] [µM] | TGI [10] | TGI [11] [µM] | TGI [12] [µM] | TGI [13] [µM] | TGI [14] [µM] | TGI [15] [µM] | TGI [16] [µM] | TGI [17] [µM]
1 | CC(C)(C)c1ccc(C(O)CCCN2CCC(C(O)(c3ccccc3)c3ccccc3)CC2)cc1 (configuration not stated) | 1.5 | 2.82 | 1.61 | 23.7 | 42.6 |  |  |  |  |  |  |  |  |  |  |  |  |  |  | 
2 | CC1C(NNC(N)=O)Oc2cc3c(cc2C1c1ccccc1O)OCO3 (configuration not stated) |  | > 100 |  |  | 76.7 | 32.8 | > 100 | > 100 | > 100 | > 100 µM | > 100 | 90.6 | > 100 µM | 48 | > 100 |  |  |  |  | 
3 | O=C(NNC(=S)Nc1ccccc1)c1nsc2ccccc12 |  | > 100 |  |  |  | > 100 | > 100 |  |  |  |  |  |  |  | > 100 | > 100 | 69.8 | > 100 | 70 | > 100
4 | CC(C(=O)OCc1ccccc1)N(Cc1ccccc1)Cc1ccccc1 (configuration not stated) |  |  |  |  |  | > 100 | > 100 |  |  |  | > 100 |  |  |  | > 100 | > 100 | > 100 | > 100 | > 100 | > 100
5 | NC(Cc1ccc(OCc2ccccc2)cc1)C(=O)NC(Cc1ccccc1)C(=O)Oc1c(Cl)c(Cl)c(Cl)c(Cl)c1Cl (configuration not stated) |  | 27.1 |  |  | 26.8 | 31.7 | 34 | 32.7 | 37.1 | 26.5 µM | 30.7 | 32.4 | 31 µM | 33.9 | 32 |  |  |  |  | 31.8
6 | Cc1c2oc3c(C)ccc(C(=O)NC4C(=O)NC(Cc5ccccc5)C(=O)N5CCCC5C(=O)N(C)CC(=O)N(C)C(C(C)C)C(=O)OC4C)c3nc-2c(C(=O)NC2C(=O)NC(Cc3ccccc3)C(=O)N3CCCC3C(=O)N(C)CC(=O)N(C)C(C(C)C)C(=O)OC2C)c(N)c1=O (configuration not stated) (I: TFP[Sar][NMeV] / II: TFP[Sar][NMeV]; ester I:1-I:C, II:1-II:C; linker I:N-II:N via Actinocin(9to1); configuration not given here) |  |  |  |  | 0.0442 |  |  | 0.0135 | 0.0647 | 0.0214 µM and 0.0312 µM | 0.21 |  | 0.0472 µM and 0.055 µM | 0.0222 |  |  |  |  |  | 1.53
7 | COc1ccccc1OCC(COC(=O)Nc1ccccc1)OC(=O)Nc1ccccc1 (configuration not stated) |  | > 100 |  |  |  | > 100 | > 100 |  |  | > 100 µM | > 100 |  |  |  | > 100 | > 100 | > 100 | > 100 | > 100 | > 100
